Read-outs that look alike come from different tables or passages of the source.
Molecular target: T1, D2-receptors (presynaptic dopaminergic receptors) (Oryctolagus cuniculus, UniProt G1T1Q0)
T1 construct: perfused rabbit ear artery protocol; from tissue; host or cells: rabbit ear artery (perfused, isolated)
Test: perfused rabbit ear artery protocol (D2-agonist activity)
Format: cell-based

[1] = perfused rabbit ear artery, D2-agonist activity, read-out: EC50

T1 sequence (G1T1Q0 1-443): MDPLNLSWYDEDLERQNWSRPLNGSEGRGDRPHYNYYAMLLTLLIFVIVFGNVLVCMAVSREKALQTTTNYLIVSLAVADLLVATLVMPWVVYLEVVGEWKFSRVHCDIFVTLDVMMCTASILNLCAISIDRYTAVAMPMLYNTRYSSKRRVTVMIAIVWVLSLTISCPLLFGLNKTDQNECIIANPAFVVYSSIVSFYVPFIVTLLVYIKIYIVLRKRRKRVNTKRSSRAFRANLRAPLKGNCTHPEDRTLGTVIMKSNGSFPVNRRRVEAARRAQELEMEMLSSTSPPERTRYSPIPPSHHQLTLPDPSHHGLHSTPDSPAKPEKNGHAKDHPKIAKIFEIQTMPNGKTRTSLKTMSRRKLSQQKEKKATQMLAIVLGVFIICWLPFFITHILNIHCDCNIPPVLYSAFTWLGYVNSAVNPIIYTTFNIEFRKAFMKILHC

| SMILES | times more potent than its oxa congener [times] | times more potent than the corresponding indolone [times] | EC50 [1] [µM] | EC50 [µM] |
| --- | --- | --- | --- | --- |
| CCCN(CCC)CCc1ccc(O)c2[nH]c(=O)sc12 [Compound A, 4-hydroxy-7-[2-(di-n-propylamino)ethyl]-1,3-benzthiazol-2(3H)-one] | ~40 | 10 | 0.0002 |  |
| CCCN(CCC)CCc1c(Cl)cc(O)c2nc(O)sc12 [B, 4-hydroxy-6-chloro-7-[2-(di-n-propylamino)ethyl]-1,3-benzthiazol-2(3H)-one] |  |  | 0.05 |  |
| CCCN(CCC)CCc1ccc(O)c2[nH]c(=O)oc12 [C, 4-hydroxy-7-[2-(di-n-propylamino)ethyl]-1,3-benzoxazol-2(3H)-one] |  |  | 0.008 |  |
| NCCc1ccc(O)c(O)c1 [D, dopamine, reference compound] |  |  |  | 0.04 |
| CCCN(CCC)CCc1ccc(O)c2[nH]c(=O)ccc12 [E, 8-hydroxy-5-[2-(di-n-propylamino)ethyl]-carbostyril, reference compound] |  |  | 0.2 |  |

Reference: US4554284A, “7-(2-Aminoethyl)-1,3-benzthia- or oxa-zol-2(3H)-ones” (Smithkline Beckman Corporation, priority 1984, dated 1985)
